For 28 compounds, T/C results are on record in PubChem BioAssay AID312 (DTP/NCI, 2004).

This experiment relates to BDF1 mice, C1498 leukemia ip, median survival T/C. The experiment in a line: NCI In Vivo Anticancer Drug Screen. Data for tumor model C1498 Myeloid Leukemia (intraperitoneal) in B6D2F1 (BDF1) mice. The conditions noted are these: endpoint: median survival time, higher = longer survival. On the procedure: The antitumor activity of compounds was measured in mice bearing transplantable tumors. Survival or tumor size were measured and the results are expressed as the measurement made in the treated group (T) divided by the measurement made in the vehicle treated control group (C). The tumor model used in this assay is C1498 Myeloid Leukemia (intraperitoneal) in B6D2F1 (BDF1) mice

The mark [1] stands for this setting: dose: 25.0 mg/kg/injection, schedule: Q01DX010 (ip), vehicle: saline.
Setting [2] is: dose: 50.0 mg/kg/injection, schedule: Q01DX010 (ip), vehicle: saline.
Setting [3] is: dose: 100.0 mg/kg/injection, schedule: Q01DX010 (ip), vehicle: saline.
[4] abbreviates: dose: 200.0 mg/kg/injection, schedule: Q01DX010 (ip), vehicle: saline.
Setting [5] is: dose: 8.0 mg/kg/injection, schedule: Q01DX010 (ip), vehicle: saline.
Setting [6] is: dose: 16.0 mg/kg/injection, schedule: Q01DX010 (ip), vehicle: saline.
The mark [7] stands for this setting: dose: 125.0 mg/kg/injection, schedule: Q01DX010 (ip), vehicle: saline.
Where [8] appears, read: dose: 250.0 mg/kg/injection, schedule: Q01DX010 (ip), vehicle: saline.
Setting [9] is: dose: 5.0 mg/kg/injection, schedule: Q01DX010 (ip), vehicle: saline.
The mark [10] stands for this setting: dose: 10.0 mg/kg/injection, schedule: Q01DX010 (ip), vehicle: saline.
[11] abbreviates: dose: 2.5 mg/kg/injection, schedule: Q01DX010 (ip), vehicle: saline.
Where [12] appears, read: dose: 20.0 mg/kg/injection, schedule: Q01DX010 (ip), vehicle: saline.
The mark [13] stands for this setting: dose: 40.0 mg/kg/injection, schedule: Q01DX010 (ip), vehicle: saline.
The mark [14] stands for this setting: dose: 31.3 mg/kg/injection, schedule: Q01DX010 (ip), vehicle: saline.
Setting [15] is: dose: 62.5 mg/kg/injection, schedule: Q01DX010 (ip), vehicle: saline.
Setting [16] is: dose: 30.0 mg/kg/injection, schedule: Q01DX010 (ip), vehicle: saline.
[17] abbreviates: dose: 60.0 mg/kg/injection, schedule: Q01DX010 (ip), vehicle: saline.
The mark [18] stands for this setting: dose: 6.25 mg/kg/injection, schedule: Q01DX010 (ip), vehicle: saline.

Molecules are shown by their SMILES. Where “and” joins values, the source holds several entries; their conditions need not be identical. Equal values may be shown once. Toxic doses and inconclusive results are not listed.

As for `Cc1cc2nc3c(=O)[nH]c(=O)nc-3n(CC(O)C(O)C(O)C(O)CO)c2cc1C` (stereo not drawn), the T/C by setting is: under setting [1], 100 % of control; under setting [2], 100 % of control; under setting [3], 95 % of control; under setting [4], 91 % of control; (dose: 400.0 mg/kg/injection, schedule: Q01DX010 (ip), vehicle: saline) 87 % of control.
Take `S=c1nc[nH]c2nc[nH]c12`: the T/C runs as follows: (dose: 1.25 mg/kg/injection, schedule: Q01DX010 (ip), vehicle: other) 104 % of control; (dose: 2.5 mg/kg/injection, schedule: Q01DX010 (ip), vehicle: other) 95 % of control; (dose: 5.0 mg/kg/injection, schedule: Q01DX010 (ip), vehicle: other) 109 % of control; (dose: 10.0 mg/kg/injection, schedule: Q01DX010 (ip), vehicle: other) 95 % of control.
Consider `C#CCN(C)Cc1ccccc1`, for which the T/C by setting is: under setting [1], 104 % of control; under setting [2], 100 % of control and 90 % of control; under setting [3], 90 % of control; under setting [4], 100 % of control and 90 % of control.
Regarding `Nc1nc(SCc2ccccc2)c2[nH]cnc2n1`, the T/C runs as follows: under setting [5], 100 % of control; under setting [6], 105 % of control; (dose: 32.0 mg/kg/injection, schedule: Q01DX010 (ip), vehicle: saline) 105 % of control; (dose: 64.0 mg/kg/injection, schedule: Q01DX010 (ip), vehicle: saline) 90 % of control.
In the case of `CCOC(N)=O`, the T/C under setting [7] was 95 % of control and 104 % of control; the T/C under setting [8] was 95 % of control and 100 % of control; the T/C (dose: 500.0 mg/kg/injection, schedule: Q01DX010 (ip), vehicle: saline) is 95 % of control and 109 % of control.
Take `O=P1(N(CCCl)CCCl)NCCCO1` (stereo not drawn): the T/C is 162 % of control and 207 % of control (dose: 200.0 mg/kg/injection, schedule: Q01DX001 (ip), vehicle: saline); 171 % of control and 241 % of control (dose: 300.0 mg/kg/injection, schedule: Q01DX001 (ip), vehicle: saline).
Take `NC(Cc1ccc(N(CCCl)CCCl)cc1)C(=O)O` (stereo not drawn): the T/C under setting [9] is 173 % of control and the T/C under setting [10] is 88 % of control.
As to `N#[N+]c1cnc([O-])[nH]c1=O`, the T/C runs as follows: (dose: 1.25 mg/kg/injection, schedule: Q01DX010 (ip), vehicle: saline) 100 % of control; under setting [11], 122 % of control; under setting [9], 113 % of control; under setting [10], 118 % of control.
As to `CN(C)c1ccc(/C=C/c2ccnc3ccccc23)cc1`, the T/C was 100 % of control under setting [9]; 100 % of control and 104 % of control under setting [10]; 95 % of control and 100 % of control under setting [12]; 95 % of control and 109 % of control under setting [13].
Consider `CCn1cnc2c(=S)nc[nH]c21`, for which the T/C was 105 % of control (dose: 15.6 mg/kg/injection, schedule: Q01DX010 (ip), vehicle: saline); 100 % of control under setting [14]; 105 % of control under setting [15]; 105 % of control under setting [7].
With `Cc1cc(N(CCCl)CCCl)ccc1N=Nc1ccccc1C(=O)O`, the T/C under setting [12] is 113 % of control.
On to `Clc1ncnc2nc[nH]c12`, for which the T/C is, setting by setting: (dose: 7.5 mg/kg/injection, schedule: Q01DX010 (ip), vehicle: saline) 95 % of control and 100 % of control; (dose: 15.0 mg/kg/injection, schedule: Q01DX010 (ip), vehicle: saline) 95 % of control and 90 % of control; under setting [16], 104 % of control and 90 % of control; under setting [17], 95 % of control.
`O=C(O)CCCc1ccc(N(CCCl)CCCl)cc1`: the T/C is 110 % of control (dose: 3.13 mg/kg/injection, schedule: Q01DX010 (ip), vehicle: saline) and 120 % of control under setting [18].
Regarding `COc1cc2c(c3c1c(=O)c1ccccc1n3C)C=CC(C)(C)O2`, the T/C was 100 % of control (dose: 6.25 mg/kg/injection, schedule: Q01DX010 (ip), vehicle: other); 107 % of control (dose: 12.5 mg/kg/injection, schedule: Q01DX010 (ip), vehicle: other); 103 % of control (dose: 25.0 mg/kg/injection, schedule: Q01DX010 (ip), vehicle: other); 119 % of control (dose: 50.0 mg/kg/injection, schedule: Q01DX010 (ip), vehicle: other); 100 % of control (dose: 100.0 mg/kg/injection, schedule: Q01DX010 (ip), vehicle: other).
In the case of `CS(=O)(=O)OCCC(=O)N1CCN(C(=O)CCOS(C)(=O)=O)CC1`, the T/C reads like this: under setting [18], 100 % of control and 105 % of control; (dose: 12.5 mg/kg/injection, schedule: Q01DX010 (ip), vehicle: saline) 100 % of control and 110 % of control and 118 % of control; under setting [1], 108 % of control and 109 % of control and 110 % of control; under setting [2], 104 % of control and 109 % of control; under setting [3], 109 % of control.
Take `S=P(N1CCOCC1)(N1CC1)N1CC1`: the T/C is, setting by setting: under setting [11], 95 % of control and 104 % of control; under setting [9], 95 % of control and 100 % of control; under setting [10], 100 % of control and 104 % of control; under setting [12], 104 % of control.
For `Nc1nc(N)c2nc(CNc3ccc(C(=O)NC(CCC(=O)O)C(=O)O)cc3)cnc2n1` (stereo not drawn), the T/C is 100 % of control and 103 % of control (dose: 0.05 mg/kg/injection, schedule: Q01DX010 (ip), vehicle: other); 92 % of control and 100 % of control (dose: 0.1 mg/kg/injection, schedule: Q01DX010 (ip), vehicle: other); 100 % of control (dose: 0.2 mg/kg/injection, schedule: Q01DX010 (ip), vehicle: other); 92 % of control (dose: 0.4 mg/kg/injection, schedule: Q01DX010 (ip), vehicle: other).
`CCN(CC)CCNc1ccc(C)c2sc3ccccc3c(=O)c12`: the T/C was 113 % of control and 118 % of control under setting [1]; 118 % of control and 122 % of control under setting [2]; 159 % of control and 172 % of control under setting [3].
`O=C(Nc1ccc(NC2=NCCN2)cc1)c1ccc(C(=O)Nc2ccc(NC3=NCCN3)cc2)cc1`: the T/C by setting is: (dose: 2.0 mg/kg/injection, schedule: Q01DX010 (ip), vehicle: saline) 113 % of control and 123 % of control; under setting [5], 172 % of control and 190 % of control; under setting [6], 109 % of control and 114 % of control.
Turning to `CCN(CCNc1ccc(C)c2sc3cc(Cl)ccc3c(=O)c12)CC(C)O` (stereo not drawn), the T/C under setting [14] was 86 % of control; the T/C under setting [15] was 104 % of control and 90 % of control; the T/C under setting [7] was 95 % of control and 86 % of control; the T/C under setting [8] was 86 % of control.
Turning to `C1CN1c1nc(N2CC2)nc(N2CC2)n1`, the T/C is, setting by setting: (dose: 0.25 mg/kg/injection, schedule: Q01DX010 (ip), vehicle: saline) 110 % of control; (dose: 0.5 mg/kg/injection, schedule: Q01DX010 (ip), vehicle: saline) 110 % of control.
For `CN(C)c1ccc(Nc2c3ccccc3nc3ccccc23)cc1`, the T/C was 118 % of control (dose: 36.0 mg/kg/injection, schedule: Q01DX010 (ip), vehicle: saline) and 86 % of control (dose: 120.0 mg/kg/injection, schedule: Q01DX010 (ip), vehicle: saline).
For `CS(=O)(=O)OCCCl`, the T/C was 90 % of control (dose: 18.8 mg/kg/injection, schedule: Q01DX010 (ip), vehicle: saline); 104 % of control (dose: 37.5 mg/kg/injection, schedule: Q01DX010 (ip), vehicle: saline); 90 % of control (dose: 75.0 mg/kg/injection, schedule: Q01DX010 (ip), vehicle: saline).
In the case of `O=c1[nH]cc(F)c(=O)[nH]1`, the T/C runs as follows: under setting [12], 159 % of control; (dose: 25.0 mg/kg/injection, schedule: Q01DX009 (ip), vehicle: saline) 165 % of control; (dose: 30.0 mg/kg/injection, schedule: Q01DX009 (ip), vehicle: saline) 165 % of control.
For the compound `CC(=O)Nc1ccc2nc3ccc(NC(C)=O)cc3[n+](-c3ccccc3)c2c1`, the T/C under setting [1] is 107 % of control, the T/C under setting [2] was 96 % of control, the T/C under setting [3] is 88 % of control and the T/C under setting [4] is 88 % of control.
Turning to `CCCCCCCCCCCCCCCC(=O)OCC1OC(n2ccc(N)nc2=O)C(O)C1O` (stereo not drawn), the T/C (dose: 125.0 mg/kg/injection, schedule: Q01DX001 (ip), vehicle: saline with Tween-80) is 153 % of control and 155 % of control; the T/C (dose: 150.0 mg/kg/injection, schedule: Q01DX001 (ip), vehicle: saline with Tween-80) is 151 % of control and 194 % of control.
On to `C[C@@H]1C[C@@H]([C@H](O)CC2CC(=O)NC(=O)C2)C(=O)[C@@H](C)C1`, for which the T/C reads like this: under setting [9], 104 % of control and 109 % of control; under setting [10], 114 % of control and 122 % of control; under setting [12], 113 % of control and 123 % of control; under setting [13], 113 % of control.
Take `N#CCSc1ncnc2nc[nH]c12`: the T/C is, setting by setting: under setting [16], 105 % of control; under setting [17], 110 % of control.
